Results on two molecules are retold here after patent publication US7781644B2, “Arabidosis AtLEJ1 gene involved in inhibiting biosynthesis of jasmonic acid and ethylene and method for producing male-sterile plant using the same” (Korea University Industry and Academy Cooperation Foundation, priority 2006, dated 2010).

For experiment [1], the system named is male-sterile AtLEJ1-overexpressed plant. Description: Restoration of male-sterile AtLEJ1-overexpressed plant to fertile phenotype by hormone treatment of flower bud cluster. The class given is in vivo, Arabidopsis. The procedure: First, a flower bud cluster of the AtLEJ1-overexpressed plant was treated with 500 μM jasmonic acid. For a negative control, non-treatment or water alone, was provided.
(§1) The flowers obtained day 2 after treatment with jasmonic acid were embedded in paraffin (Paraplast) and then stained with phloroglucinol for microscopic observation.

The subject of experiment [2] is endothecium cells of stamens of the AtLEJ1-overexpressed plant. Description: Phloroglucinol staining of paraffin sections for lignification of endothecium cells of stamens after hormone treatment. The class given is in vivo, Arabidopsis.
Text: In order to examine the developmental process of anthers at the cell level, flowers of the wild-type and the AtLEJ1-overexpressed plant were dipped in a fixing solution, dehydrated with a series of ethanol solutions, and embedded in paraffin (Paraplast), followed by microtome section at 8 μm. The sections were stained with 2% phloroglucinol to visualize the lignification of the endothecium cells, known to play an important role in anther dehiscence, and were washed with 9N HCl.
as §1

In the case of `NC1(C(=O)O)CC1` [ACC, 1-aminocyclopropane-1-carboxylic acid], the “restoration to a fertile phenotype” value in experiment [1] (treatment with 50 mM ACC (FIG. 12)) and in experiment [1] (treatment with 500 mM ACC (FIG. 12)) was “restored to a fertile phenotype” throughout. In addition, the “lignification of endothecium cells of stamens” value in experiment [2] (ACC-treated plant, 50 mM or 500 mM (FIG. 13)) is given as “Lignification was also found”.

On to `CC/C=C\C[C@H]1C(=O)CC[C@@H]1CC(=O)O` [jasmonic acid], for which the “restoration to a fertile phenotype” value in experiment [1] (500 μM jasmonic acid on flower bud cluster, one week after treatment, control remained sterile (FIG. 10)) is listed as “at least partly, restored to a fertile phenotype”. Moreover, the “anther dehiscence (microscopic observation of treated flowers)” value in experiment [1] (500 μM jasmonic acid, day 2 after treatment) is recorded as “observed to enter anther dehiscence”. For the same molecule, in experiment [2] (500 μM jasmonic acid, flowers obtained day 2 after treatment (FIG. 11)), the “lignification of endothecium cells of stamens (phloroglucinol staining)” value is recorded as “lignified”.
